“And” between values parts separate entries of the source, which are not always exact repeats. Identical values can stand only once.
Legend:
CYP2C19 = CYP2C19 (Homo sapiens, UniProt P33261); assay: In vitro contribution of CYP enzymes to mavacamten metabolism; assay type: in vitro ADME
[1] = test system: individuals with symptomatic obstructive hypertrophic cardiomyopathy (oHCM); assay: PIONEER-OLE Phase 2 open-label extension study of mavacamten; assay type: in vivo
Procedure: All subjects were started on a dose of 5 mg QD.
To maximize safety, the starting dose will be 5 mg for all subjects. Subjects will return at Week 4 (±4 days) for a plasma PK sample to measure drug levels and to undergo echocardiography to determine LVOT gradient (at rest, after a Valsalva maneuver, and after exercise) and left ventricular ejection fraction (LVEF).
After Week 6, additional study visits will occur at Week 8 (±7 days), Week 12 (±7 days), and every 12 weeks (±7 days) thereafter. Subjects also will be contacted by phone in between clinic visits, at Week 18 and every 12 weeks thereafter. An end of study (EOS) visit will occur 12 weeks (±7 days) after the last administration of study drug. Visits (including the Screening visit which serves as the baseline) will entail recording vital signs, targeted physical examination, ECGs, safety laboratory tests, N-terminal pro b-type natriuretic peptide (NT-proBNP), adverse events (AEs), New York Heart Association (NYHA) functional class, Kansas City Cardiomyopathy Questionnaire (KCCQ) score, and concomitant medications. At Weeks 4, 8, 24, 36, 48, 60, 72, 96, 120, 144, 156/early termination (ET), and 168/EOS, a predose blood sample for assessment of drug concentration will be obtained. A standard TTE (including but not limited to assessment of LVOT gradient at rest and after Valsalva) will be performed at baseline, at Weeks 4, 8, 12, 24, 36, 48, 72, 96, 120, 144, 156/ET, and 168/EOS. In addition, a stress echocardiogram (with assessment of LVOT gradient post-exercise) will also be performed at baseline, Weeks 4, 48, 72, 156/ET, and 168/EOS.
The study endpoints include safety, tolerability, and select measures of efficacy using individualized dosing. Key measurements include LVOT gradient, LVEF, NT-proBNP.
• 1. Frequency and severity of treatment-emergent AEs and SAEs, • 2. Frequency of cardiovascular (CV) death, • 3. Frequency of sudden death, • 4. Frequency of CV hospitalization, • 5. Frequency of heart failure requiring the initiation of oral loop diuretics or the administration of intravenous loop diuretics, • 6. Frequency of myocardial infarction, • 7. Frequency of ventricular arrhythmias (ventricular tachycardia, ventricular fibrillation, ventricular flutter, torsade de pointe), • 8. Frequency of syncope, • 9. Frequency of seizures, • 10. Frequency of stroke, • 11. Frequency of LVEF≤45% as measured by echocardiography, • 12. QT and QTcF intervals over time.
• 1. Post-exercise, post-Valsalva, and resting LVOT gradient over time, • 2. NYHA functional class over time, • 3. KCCQ scores over time, • 4. NT-proBNP over time, • 5. Frequency of septal reduction therapy.

[2] = Change from Baseline to Week 48

CYP2C19, sequence (P33261 whole entry): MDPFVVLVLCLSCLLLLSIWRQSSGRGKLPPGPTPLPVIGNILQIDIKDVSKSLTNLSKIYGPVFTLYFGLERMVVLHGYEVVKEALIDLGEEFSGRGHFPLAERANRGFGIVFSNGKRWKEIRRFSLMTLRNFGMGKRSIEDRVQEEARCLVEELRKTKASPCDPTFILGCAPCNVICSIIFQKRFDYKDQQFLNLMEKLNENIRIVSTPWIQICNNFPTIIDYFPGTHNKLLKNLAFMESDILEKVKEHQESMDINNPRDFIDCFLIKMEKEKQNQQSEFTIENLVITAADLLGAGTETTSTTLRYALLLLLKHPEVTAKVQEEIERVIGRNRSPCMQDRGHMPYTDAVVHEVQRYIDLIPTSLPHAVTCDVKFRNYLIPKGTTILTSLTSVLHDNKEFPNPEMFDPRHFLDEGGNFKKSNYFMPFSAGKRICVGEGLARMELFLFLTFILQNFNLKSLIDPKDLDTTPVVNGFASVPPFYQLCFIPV

SMILES: CC(C)n1c(=O)cc(N[C@@H](C)c2ccccc2)[nH]c1=O [mavacamten, (S)-3-Isopropyl-6-((1-phenylethyl)amino)pyrimidine-2, 4(1H,3H)-dione]
- percent contribution to the metabolism of mavacamten (CYP2C19): 74%
- Cardiac-related adverse events (AEs) attributed to study drug ([1]; 48-week period): no cardiac-related adverse events
- E/e′ lateral [1, 2]: −3.4
- NT-proBNP, median [1, 2]: -472 pg/mL
- e′lat, mean ± SD [1, 2]: 1.6 cm/s and 1.6 ± 1.1 cm/s
- IVS ([1]; Change from Baseline to Week 48, Table 1.1): −1.5 mm
- E/e′ lateral ([1]; Week 12): 9.8
- Interventricular septal thickness, Change from baseline, mean ± SD ([1]; Week 12): −0.7 ± 0.7 mm
- Interventricular septal thickness, Mean ± SD ([1]; Week 12): 15.9 ± 2.7 mm
- LV maximum wall thickness, Change from baseline, mean ± SD ([1]; Week 12): −0.8 ± 2.0 mm
- LV maximum wall thickness, Mean ± SD ([1]; Week 12): 20.1 ± 2.5 mm
- LV posterior wall thickness, Change from baseline, mean ± SD ([1]; Week 12): 0.2 ± 0.8 mm
- LV posterior wall thickness, Mean ± SD ([1]; Week 12): 11.9 ± 2.2 mm
- NT-proBNP, median ([1]; Week 12): 99 pg/mL
- Systolic anterior motion of the mitral valve present, % ([1]; Week 12): (46.2) %
- e′lat, mean ± SD ([1]; Week 12): 8.4 ± 2.3 cm/s
- IVS ([1]; Week 12, Table 1.1): 16.0 mm
- E/e′ lateral ([1]; Week 24): 10.2
- Interventricular septal thickness, Change from baseline, mean ± SD ([1]; Week 24): −0.7 ± 1.1 mm
- Interventricular septal thickness, Mean ± SD ([1]; Week 24): 15.8 ± 2.7 mm
- LV maximum wall thickness, Change from baseline, mean ± SD ([1]; Week 24): −1.8 ± 1.8 mm
- LV maximum wall thickness, Mean ± SD ([1]; Week 24): 19.1 ± 2.4 mm
- LV posterior wall thickness, Change from baseline, mean ± SD ([1]; Week 24): 0.2 ± 0.9 mm
- LV posterior wall thickness, Mean ± SD ([1]; Week 24): 11.8 ± 2.0 mm
- NT-proBNP, median ([1]; Week 24): 93 pg/mL
- Systolic anterior motion of the mitral valve present, % ([1]; Week 24): (46.2) %
- e′lat, mean ± SD ([1]; Week 24): 7.9 ± 2.2 cm/s
- IVS ([1]; Week 24, Table 1.1): 15.8 mm
- E/e′ lateral ([1]; Week 36): 8.5
- Interventricular septal thickness, Change from baseline, mean ± SD ([1]; Week 36): −1.2 ± 1.7 mm
- Interventricular septal thickness, Mean ± SD ([1]; Week 36): 15.4 ± 2.7 mm
- LV maximum wall thickness, Change from baseline, mean ± SD ([1]; Week 36): −1.8 ± 1.9 mm
- LV maximum wall thickness, Mean ± SD ([1]; Week 36): 19.0 ± 2.2 mm
- LV posterior wall thickness, Change from baseline, mean ± SD ([1]; Week 36): 0.0 ± 1.5 mm
- LV posterior wall thickness, Mean ± SD ([1]; Week 36): 11.7 ± 1.7 mm
- NT-proBNP, median ([1]; Week 36): 168 pg/mL
- Systolic anterior motion of the mitral valve present, % ([1]; Week 36): (58.3) %
- e′lat, mean ± SD ([1]; Week 36): 8.7 ± 2.8 cm/s
- IVS ([1]; Week 36, Table 1.1): 15.4 mm
- E/e′ lateral ([1]; Week 48): 9.1
- Interventricular septal thickness, Change from baseline, mean ± SD ([1]; Week 48): −1.2 ± 2.3 mm
- Interventricular septal thickness, Mean ± SD ([1]; Week 48): 15.5 ± 2.0 mm
- LV maximum wall thickness, Change from baseline, mean ± SD ([1]; Week 48): −1.4 ± 2.2 mm
- LV maximum wall thickness, Mean ± SD ([1]; Week 48): 19.4 ± 2.7 mm
- LV posterior wall thickness, Change from baseline, mean ± SD ([1]; Week 48): −0.5 ± 1.9 mm
- LV posterior wall thickness, Mean ± SD ([1]; Week 48): 11.1 ± 1.9 mm
- NT-proBNP, median ([1]; Week 48): 137 pg/mL
- Systolic anterior motion of the mitral valve present, % ([1]; Week 48): (33.3) %
- Valsalva LVOT gradient, mean change ([1]; Week 48): −66.0 mm Hg
- e′lat, mean ± SD ([1]; Week 48): 8.0 ± 1.6 cm/s
- mean resting LVOT gradient ([1]; Week 48): 14.0 mm Hg
- patients achieving a post-exercise LVOT gradient<30 mm Hg ([1]; Week 48): Five
- post-exercise LVOT gradient, mean change ([1]; Week 48): −85.1 mm Hg
- resting LVOT gradient for all subjects ([1]; Week 48): below 50 mmHg
- subjects achieving asymptomatic status (NYHA Class I) ([1]; Week 48): nine out of twelve
- subjects with resting LVOT gradient below the 30 mmHg threshold ([1]; Week 48): 11 of 12
- IVS ([1]; Week 48, Table 1.1): 15 mm and 15.3 mm
- Interventricular septal thickness, Change from baseline, mean ± SD ([1]; Week 48, listed as Mavacamten): −1.2 mm
- LV maximum wall thickness, Change from baseline, mean ± SD ([1]; Week 48, listed as Mavacamten): −1.4 mm
- KCCQ mean score ([1]; Week 48, scores range 0-100): 87.3
- LVEF for all patients ([1]; all timepoints throughout the study): above 50%
- resting LVOT gradient, mean change ([1]; baseline to Week 48): −52.7 mm Hg
- Number of AEs considered potentially related to study drug ([1]; in 3 subjects): 8
- number of SAEs ([1]; in 3 subjects, not cardiovascular, not related to study drug): 4
- Number of AEs ([1]; most mild or moderate, and transient): 64
- Tolerability ([1]; one-year treatment period): well tolerated

Reference: patent publication US20260207600A1, “METHODS OF TREATMENT WITH MYOSIN MODULATOR” (MYOKARDIA, INC., priority 2019, published 2026)
